Data taken from US20170121315A1, “HETEROBICYCLICALLY SUBSTITUTED 4-OXOBUTANE ACID DERIVATIVES AND USE THEREOF” (priority 2014, published 2017).

How the values were obtained:
MMP-8 = biological target: T1, MMP-8 (Homo sapiens, UniProt P22894); assay: In vitro MMP-8 inhibition test; format: biochemical; details: human MMP-8
T1 construct: purchased R&D Systems 908-MP
Text: (§1) The MMP-mediated amidolytic cleavage of a suitable peptide substrate leads to an increase in fluorescent light here too. The signal intensity of the fluorescent light is directly proportional to the enzyme activity. The active concentration of a test compound at which half the enzyme is inhibited (50% signal intensity of the fluorescent light) is reported as the IC50 value.
(§2) Recombinant MMP-8 (R&D Systems, 908-MP) is chemically activated in accordance with the manufacturer's instructions using APMA. 1 μl of the test compound to be analysed (as a solution in DMSO, suitable concentrations e.g. 1 nM to 30 μM) is pipetted into 24 μl of activated enzyme (final concentration e.g. 0.5 nM) in reaction buffer (50 mM Tris/HCl pH 7.5, 10 mM CaCl2, 150 mM NaCl, 0.05% Brij®-35) in a white 384-hole microtiter plate (MTP). The enzymatic reaction is started by adding the intramolecularly quenched Mca-Pro-Leu-Gly-Leu-Dpa(Dnp)-Ala-Arg-NH2 substrate (final concentration e.g. 10 μM; R&D Systems, ES-001), so as to result in a total test volume of 50 μl. The course of the MMP-8 reaction is measured by measuring the fluorescence intensity (excitation 320 nm, emission 410 nm) over a suitable period of time (e.g. over 120 min at a temperature of 32° C.).

MMP-10 = biological target: T2, MMP-10 (Homo sapiens, UniProt P09238); assay: In vitro MMP-10 inhibition test; format: biochemical; details: human MMP-10
T2 construct: purchased R&D Systems 910-MP
T2 sequence (P09238 99-476): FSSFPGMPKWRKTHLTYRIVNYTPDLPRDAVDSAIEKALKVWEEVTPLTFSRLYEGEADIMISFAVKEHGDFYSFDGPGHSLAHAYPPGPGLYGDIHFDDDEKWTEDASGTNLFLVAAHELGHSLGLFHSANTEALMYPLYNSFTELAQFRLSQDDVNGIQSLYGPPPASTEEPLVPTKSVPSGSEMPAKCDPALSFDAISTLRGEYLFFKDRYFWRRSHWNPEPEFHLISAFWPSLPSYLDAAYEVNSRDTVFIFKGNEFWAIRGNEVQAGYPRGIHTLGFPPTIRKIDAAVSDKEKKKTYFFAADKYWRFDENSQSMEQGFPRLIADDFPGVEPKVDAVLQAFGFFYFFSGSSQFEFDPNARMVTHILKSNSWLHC
Text: as §1
as §2, with “MMP-10” for “MMP-8”, “910-MP)” for “908-MP)”, “2” for “0.5”, “Mca-Arg-Pro-Lys-Pro-Val-Glu-Nval-Trp-Arg-Lys(Dnp)-NH2” for “Mca-Pro-Leu-Gly-Leu-Dpa(Dnp)-Ala-Arg-NH2”, “ES-002),” for “ES-001),”

MMP-14 = biological target: T3, MMP-14 (Homo sapiens, UniProt P50281); assay: In vitro MMP-14 inhibition test; format: biochemical; details: human MMP-14
T3 construct: purchased R&D Systems 918-MP
Text: as §1
Recombinant MMP-14 (R&D Systems, 918-MP) is enzymatically activated in accordance with the manufacturer's instructions using recombinant furin (R&D Systems, 1503-SE). 1 μl of the test compound to be analysed (as a solution in DMSO, suitable concentrations e.g. 1 nM to 30 μM) is pipetted into 24 μl of activated enzyme (final concentration e.g. 0.5 nM) in reaction buffer (50 mM Tris/HCl pH 7.5, 10 mM CaCl2, 150 mM NaCl, 0.05% Brij®-35) in a white 384-hole microtiter plate (MTP). The enzymatic reaction is started by adding the intramolecularly quenched Mca-Lys-Pro-Leu-Gly-Leu-Dpa(Dnp)-Ala-Arg-NH2 substrate (final concentration e.g. 5 μM; R&D Systems, ES-010), so as to result in a total test volume of 50 μl. The course of the MMP-14 reaction is measured by measuring the fluorescence intensity (excitation 320 nm, emission 410 nm) over a suitable period of time (e.g. over 120 min at a temperature of 32° C.).

rat hepatocytes = assay: Hepatocyte assay for determination of metabolic stability; format: in vitro ADME; details: after incubation with rat hepatocytes

T1 sequence (P22894 101-467): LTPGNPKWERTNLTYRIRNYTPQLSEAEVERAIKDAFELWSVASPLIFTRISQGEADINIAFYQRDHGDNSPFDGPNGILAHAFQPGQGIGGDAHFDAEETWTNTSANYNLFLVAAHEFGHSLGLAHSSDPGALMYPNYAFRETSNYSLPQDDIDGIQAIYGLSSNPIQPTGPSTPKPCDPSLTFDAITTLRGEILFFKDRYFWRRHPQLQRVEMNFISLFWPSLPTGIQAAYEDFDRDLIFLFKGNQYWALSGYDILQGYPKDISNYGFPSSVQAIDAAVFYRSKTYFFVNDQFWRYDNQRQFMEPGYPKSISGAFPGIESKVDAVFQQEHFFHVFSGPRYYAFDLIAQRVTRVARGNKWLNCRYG

Compound	IC50 (MMP-8)	IC50 (MMP-10)	IC50 (MMP-14)	CLblood (calculated blood clearance, well-stirred) (rat hepatocytes)	Fmax (maximum possible bioavailability after oral administration, well-stirred) (rat hepatocytes)
O=C(CC(CCn1nnc2ccccc2c1=O)C(=O)O)c1cc2ccc(OCCc3ccccc3)cc2o1 (racemic) [Example 73, (+/−)-4-Oxo-2-[2-(4-oxo-1,2,3-benzotriazin-3(4H)-yl)ethyl]-4-[6-(2-phenylethoxy)-1-benzofur-2-yl]butanoic acid]	> 40 µM	> 40 µM	> 40 µM	23.2 mL/min/kg	66.9%
O=C(CC(CCn1nnc2ccccc2c1=O)C(=O)O)c1noc2cc(OCc3ccc(F)cc3)ccc12 (racemic) [Example 136, (+/−)-4-{6-[(4-Fluorobenzyl)oxy]-1,2-benzoxazol-3-yl}-4-oxo-2-[2-(4-oxo-1,2,3-benzotriazin-3(4H)-yl)ethyl]butanoic acid]	1.2 µM	12 µM	4.9 µM	12.2 mL/min/kg	82.7%
CCCCCOc1ccc2c(C(=O)CC(CCn3nnc4ccccc4c3=O)C(=O)O)noc2c1 (racemic) [Example 140, (+/−)-4-Oxo-2-[2-(4-oxo-1,2,3-benzotriazin-3(4H)-yl)ethyl]-4-[6-(pentyloxy)-1,2-benzoxazol-3-yl]butanoic acid]	0.57 µM	6.3 µM	3.4 µM	24.8 mL/min/kg	64.5%
O=C(CC(CCn1nnc2ccccc2c1=O)C(=O)O)c1noc2cc(OCCc3ccccc3)ccc12 (racemic) [Example 144, (+/−)-4-Oxo-2-[2-(4-oxo-1,2,3-benzotriazin-3(4H)-yl)ethyl]-4-[6-(2-phenylethoxy)-1,2-benzoxazol-3-yl]butanoic acid]	2.5 µM	29 µM	2.5 µM	29 mL/min/kg	58.6%
O=C(CC(CCn1nnc2ccccc2c1=O)C(=O)O)c1noc2cc(OCc3ccccc3)ccc12 (racemic) [Example 145, (+/−)-4-[6-(Benzyloxy)-1,2-benzoxazol-3-yl]-4-oxo-2-[2-(4-oxo-1,2,3-benzotriazin-3(4H)-yl)ethyl]butanoic acid]	2.8 µM	10 µM	4 µM	25.5 mL/min/kg	63.7%
O=C(CC(CCn1nnc2ccc(C(F)(F)F)cc2c1=O)C(=O)O)c1noc2cc(OCc3ccccc3)ccc12 (racemic) [Example 154, (+/−)-4-[6-(Benzyloxy)-1,2-benzoxazol-3-yl]-4-oxo-2-{2-[4-oxo-6-(trifluoromethyl)-1,2,3-benzotriazin-3(4H)-yl]ethyl}butanoic acid]	0.97 µM	3.3 µM	26 µM	20.3 mL/min/kg	70.9%
O=C(CC(CCn1nnc2ccc(C(F)(F)F)cc2c1=O)C(=O)O)c1noc2cc(OCC3CCOCC3)ccc12 (racemic) [Example 155, (+/−)-4-Oxo-2-{2-[4-oxo-6-(trifluoromethyl)-1,2,3-benzotriazin-3(4H)-yl]ethyl}-4-[6-(tetrahydro-2H-pyran-4-ylmethoxy)-1,2-benzoxazol-3-yl]butanoic acid]	0.082 µM	5.1 µM	> 40 µM	20.2 mL/min/kg	71.1%
O=C(CC(CCn1nnc2ccccc2c1=O)C(=O)O)c1cc2ccc(OCC3CC3)cc2s1 (single isomer, unassigned; (+)) [Example 112, (+)-4-[6-(Cyclopropylmethoxy)-1-benzothiophen-2-yl]-4-oxo-2-[2-(4-oxo-1,2,3-benzotriazin-3(4H)-yl)ethyl]butanoic acid]	0.24 µM	2.5 µM	2.8 µM	33.2 mL/min/kg	52.5%
O=C(C[C@H](CCn1nnc2ccccc2c1=O)C(=O)O)c1noc2cc(OCC3CCOCC3)ccc12 (single isomer, unassigned; enantiomer 2) [Example 135]	0.17 µM	9 µM	3.5 µM	22.7 mL/min/kg	67.5%
O=C(O)[C@@H]1[C@@H](Cn2nnc3ccc(C(F)(F)F)cc3c2=O)CC[C@H]1C(=O)c1cc2cc(OCCc3ccccc3)ccc2o1 (single isomer, unassigned; enantiomer 2) [Example 159, (+)-(1RS,2SR,5RS)-2-{[4-Oxo-6-(trifluoromethyl)-1,2,3-benzotriazin-3(4H)-yl]methyl}-5-{[5-(2-phenylethoxy)-1-benzofur-2-yl]carbonyl}cyclopentanecarboxylic acid (enantiomer 2)]	0.31 µM	0.34 µM	2.6 µM	10.8 mL/min/kg	84.5%
